Data as given in patent US20130337095A1, “ANTIMICROBIAL COMPOSITION AND ITS METHOD OF USE” (Waikatolink Limited, priority 2012, published 2013).
Converted amounts (≈) assume the structure as drawn. Counter-ions that a name gives are not always drawn. Like-named read-outs stand apart in the source and are kept apart here.

Experiments:
Type in all cases: cell-based
[1] = tested on: Streptococcus agalactiae (NZRM 2721, ATCC 27956); test: MIC assay against S. agalactiae
Protocol: (§1) To exemplify the concept of the present invention, the in vitro activity of three novel plant extracts melaleuca oil, manuka oil, and black walnut hull extract in a specific ratio described herein, were tested against an isolate of various microbes (methicillin-sensitive S. aureus, methicillin-resistant S. aureus, S. pyogenes, S. agalactiae, S. uberis, E. coli, C. albicans) from a reference library.
(§2) MIC90 refers to the minimum inhibitory concentration required to inhibit the growth of 90% of the organisms. The methods and materials used for this preliminary study are outlined in Example 5.
(§3) The test formulation, comprising three novel plant extracts melaleuca oil, manuka oil, and black walnut hull extract in a specific ratio described herein, was serially diluted to give 11 different concentrations. The diluted samples were then incubated with individual microbes, and the MICs were determined as the lowest concentration of test substance that inhibited the growth of the microbe as determined by measurement of OD650 nm using a VersaMax 96 well plate reader. […]

[2] = tested on: Staphylococcus aureus (NZCC 4410, ATCC 33591, Strain 328 methicillin resistant); test: MIC assay against methicillin-resistant S. aureus
Protocol: as §1, §2, §3

[3] = tested on: Pseudomonas aeruginosa (ESR strain 981, NTC 10662, ATCC 25668); test: MIC assay, in-vitro anti P. aeruginosa activity; conditions: antibiotics; for MIC90: Pseudomonas aeruginosa, ATCC25668
Protocol: To exemplify the concept of the present invention, the in vitro activity of three novel plant extracts melaleuca oil, manuka oil, and black walnut hull extract, and blends of these extracts, were tested against an isolate of Pseudomonas aeruginosa from a reference library. MIC90 refers to the minimum inhibitory concentration required to inhibit the growth of 90% of the organisms. The methods and materials used for this preliminary study are outlined in Example 3.
• The methodology used in this study is based on standard MIC assay methods referenced in numerous publications. • Each of the extracts was serially diluted to give 11 different concentrations. The diluted samples were then incubated with the Pseudomonas aeruginosa (ESR strain 981, NTC 10662, ATCC 25668, DSM 46358, NC/MB 13063). The MICs were determined as the lowest concentration of each extract that inhibits growth of the bacteria as determined by measurement of OD650 nm using a VersaMax 96 well plate reader.
• Tryptic soy agar base (Bacto Difco Media Cat. No. 236940, Becton Dickinson and company). • Mueller II broth cation-adjusted (BBL media Cat. No. 212332, Becton Dickinson and company).
• a) The isolate of Pseudomonas aeruginosa was streaked from −70° C. cryostocks onto Tryptic Soy Agar (TSA) plates and incubated for 24-48 hrs at 37° C. until visible single colonies developed. • b) One colony was picked, using a sterile inoculating loop and used to inoculate sterile 10 ml universals of Mueller II Cation-adjusted broth. Inoculated broths were incubated for approx 18 hrs at 37° C. • c) Following overnight incubation the culture was diluted with fresh sterile Mueller II cation adjusted broth to an OD650 nm of approximately 0.1, equivalent to approx […] (cell number and OD650 nm was determined and optimised prior to commencement of MIC testing). This is the seed broth which was used to inoculate the test wells in each plate. The seed culture was held at 4° C. until required for plating. • d) Stock solutions of each test extract were prepared so that their concentration is 64 μg/ml in the appropriate formulation in Mueller II cation adjusted broth. Once the extract was added to the broth it was mixed using a vortex mixer for approx 30 sec to ensure homogenous dispersion throughout the broth solution. • e) A 96 well microtitre plate was then set up as follows: To all wells, except the first in every row, 100 μl of sterile Mueller II cation adjusted broth was added. The plate was prepared up to 24 hrs in advance and held at −20° C. until ready for use. • f) If the plate was prepared in advance, it needed to be thawed at room temperature. […]

[4] = tested on: Escherichia coli (NZRN 2220, ATCC 291214); test: MIC assay against E. coli
Protocol: as §1, §2, §3

Streptococcus pyogenes = test: MIC assay against S. pyogenes
Protocol: as §1, §2, §3

[5] = tested on: Streptococcus uberis (NZRM 2266 NCTC 3858); test: MIC assay against S. uberis
Protocol: as §1, §2, §3

[6] = tested on: Staphylococcus aureus (NZCC865, ATCC12598); test: MIC assay against S. aureus (methicillin-sensitive)
Protocol: as §1, §2, §3

## CC1=C(C(=O)O)N2C(=O)[C@@H](NC(=O)[C@H](N)c3ccccc3)[C@H]2SC1 [Cephalexin, Cephalexin hydrate]
[1]; 16 h
  MIC antibiotic reference 16 h: 0.098 µg/mL
[1]; 24 h
  MIC antibiotic reference 24 h: 0.098 µg/mL

## C[C@H]1c2cccc(O)c2C(=O)C2=C(O)[C@]3(O)C(=O)C(C(N)=O)=C(O)[C@@H](N(C)C)[C@@H]3[C@@H](O)[C@@H]21 [Doxycycline]
[2]; 16 h
  MIC antibiotic reference 16 h: 0.05 µg/mL (≈ 0.113 µM)

## CCN1CCN(c2cc3c(cc2F)c(=O)c(C(=O)O)cn3C2CC2)CC1 [Enfrofloxacin]
[2]; 24 h
  MIC antibiotic reference 24 h: 0.05 µg/mL (≈ 0.139 µM)

## O=C(O)c1cn(C2CC2)c2cc(N3CCNCC3)c(F)cc2c1=O [G. ciprofloxacin, ciprofloxacin]
[3]; 18 h, read-out: MIC90 18 h
  MIC90: 0.049 µg/mL (≈ 0.148 µM)
[3]; 24 h, read-out: MIC90 24 h
  MIC90: 0.098 µg/mL (≈ 0.296 µM)
[4]; 16 h
  MIC antibiotic reference 16 h: 0.049 µg/mL (≈ 0.148 µM)
[4]; 24 h
  MIC antibiotic reference 24 h: 0.049 µg/mL (≈ 0.148 µM)

## CC1(C)S[C@@H]2[C@H](NC(=O)Cc3ccccc3)C(=O)N2[C@H]1C(=O)O [Penicillin, Penicillin G sodium salt]
Streptococcus pyogenes; 16 h
  MIC antibiotic reference 16 h: 0.049 µg/mL
Streptococcus pyogenes; 24 h
  MIC antibiotic reference 24 h: 0.049 µg/mL
[5]; 16 h
  MIC antibiotic reference 16 h: 0.049 µg/mL
[5]; 24 h
  MIC antibiotic reference 24 h: 0.049 µg/mL

## [H]/N=C(/N)N[C@H]1[C@H](O)[C@@H](O)[C@H](O[C@@H]2O[C@@H](C)[C@](O)(C=O)[C@H]2O[C@@H]2O[C@@H](CO)[C@H](O)[C@@H](O)[C@@H]2NC)[C@@H](N/C(N)=N\[H])[C@@H]1O [Streptomycin]
[6]
  MIC antibiotic reference 16 h: 0.003 µg/mL (≈ 0.00516 µM)

## gentamicin [F. gentamicin]
[3]; 18 h
  MIC90 18 h: 0.098 µg/mL
[3]; 24 h
  MIC90 24 h: 3.125 µg/mL
